Results: ChEMBL document CHEMBL2202998, “Investigations into specificity of azepinomycin for inhibition of guanase: discrimination between the natural heterocyclic inhibitor and its synthetic nucleoside analogues” (Bioorg Med Chem Lett, 2012)

Legend:
[1] = Competitive inhibition of rabbit liver guanase assessed as guanine hydrolysis rate by Lineweaver-Burk plot method; set-up: species or system Oryctolagus cuniculus
Guanine deaminase = biological target: T1, Guanine deaminase (Homo sapiens, UniProt Q9Y2T3); test: Inhibition of guanase
T1 sequence (Q9Y2T3 whole entry): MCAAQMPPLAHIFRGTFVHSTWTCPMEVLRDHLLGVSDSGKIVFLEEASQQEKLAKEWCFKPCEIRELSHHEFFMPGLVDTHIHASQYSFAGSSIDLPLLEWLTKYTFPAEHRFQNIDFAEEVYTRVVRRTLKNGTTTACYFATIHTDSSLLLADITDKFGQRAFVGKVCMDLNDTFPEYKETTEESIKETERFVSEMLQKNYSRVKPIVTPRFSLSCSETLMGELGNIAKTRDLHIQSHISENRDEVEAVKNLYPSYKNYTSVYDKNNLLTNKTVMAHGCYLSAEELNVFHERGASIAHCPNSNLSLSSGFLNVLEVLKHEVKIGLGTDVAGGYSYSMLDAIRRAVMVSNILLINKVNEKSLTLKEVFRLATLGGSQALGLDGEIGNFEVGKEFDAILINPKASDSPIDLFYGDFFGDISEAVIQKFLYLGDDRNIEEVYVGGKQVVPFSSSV

SMILES	Ki [1] [µM]	IC50 (Guanine deaminase) [µM]
O=C1N[C@@H](O)CNc2c1ncn2[C@@H]1O[C@H](CO)[C@@H](O)[C@H]1O	119	
O=C1N[C@H](O)CNc2c1ncn2[C@@H]1O[C@H](CO)[C@@H](O)[C@H]1O	129	
O=C1NC(O)CNc2nc[nH]c21 (racemic) [AZEPINOMYCIN]	2.5	5
